This is an account of results in patent US20120322827A1, “COMPOUNDS AND METHODS” (priority 2010, published 2012).

Molecules are shown by their SMILES.

For the test, the target named is T1, Recombinant HDAC9 isoform 4 (Homo sapiens, UniProt Q9UKV0).
T1 construct: purchased BPS Bioscience
T1 sequence (Q9UKV0 1-1066 isoform Q9UKV0-5): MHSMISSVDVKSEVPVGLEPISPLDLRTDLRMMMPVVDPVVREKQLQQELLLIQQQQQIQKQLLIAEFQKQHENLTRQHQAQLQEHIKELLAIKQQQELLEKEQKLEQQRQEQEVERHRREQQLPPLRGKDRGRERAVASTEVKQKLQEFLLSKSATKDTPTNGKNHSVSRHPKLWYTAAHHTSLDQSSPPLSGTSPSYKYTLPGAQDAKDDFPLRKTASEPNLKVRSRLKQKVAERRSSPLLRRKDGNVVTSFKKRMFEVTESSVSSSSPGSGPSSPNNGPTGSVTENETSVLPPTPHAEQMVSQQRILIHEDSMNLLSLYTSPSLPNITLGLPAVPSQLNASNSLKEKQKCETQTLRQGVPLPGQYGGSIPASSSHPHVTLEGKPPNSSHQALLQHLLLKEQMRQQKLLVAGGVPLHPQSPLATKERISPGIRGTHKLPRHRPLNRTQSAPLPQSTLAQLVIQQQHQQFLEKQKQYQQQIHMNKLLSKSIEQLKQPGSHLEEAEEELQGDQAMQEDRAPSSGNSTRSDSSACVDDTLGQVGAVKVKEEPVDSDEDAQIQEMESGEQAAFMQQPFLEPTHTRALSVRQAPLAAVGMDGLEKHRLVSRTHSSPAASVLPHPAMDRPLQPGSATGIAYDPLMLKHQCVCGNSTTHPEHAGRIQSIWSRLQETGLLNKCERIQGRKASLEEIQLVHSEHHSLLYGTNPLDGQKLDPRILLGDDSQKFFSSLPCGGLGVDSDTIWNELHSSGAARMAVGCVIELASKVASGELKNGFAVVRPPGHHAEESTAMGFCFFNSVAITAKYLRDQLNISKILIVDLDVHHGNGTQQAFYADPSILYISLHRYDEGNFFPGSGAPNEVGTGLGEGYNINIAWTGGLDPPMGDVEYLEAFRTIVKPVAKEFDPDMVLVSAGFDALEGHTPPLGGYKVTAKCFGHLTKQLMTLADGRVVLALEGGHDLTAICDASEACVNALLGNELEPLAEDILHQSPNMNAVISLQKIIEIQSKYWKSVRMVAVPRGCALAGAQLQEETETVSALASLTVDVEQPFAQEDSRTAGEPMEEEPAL
Nature of the test: Histone Deacetylase 9 (HDAC9) inhibition assay, fluorogenic substrate. The class given is biochemical. The conditions noted are these: mean of a minimum of 2 experiments; 11 point 3x dilution series from 100 uM; 45 minutes incubation at room temperature; read-out: mean pIC50 of HDAC9 inhibition (converted). The text has this: Histone Deacetylase 9 (HDAC9) Inhibition Assay:
Novel histone deacetylase 9 (HDAC9) inhibitors were characterized in an in vitro biochemical functional assay. The assay measures the increased fluorescent signal due to deacetylation, by HDAC9, of a fluorogenic substrate. The commercial available substrate is Class IIa HDAC-specific and contains an acetylated lysine residue and would releases the fluorescent signal upon trypsin cleavage after deacetylation.
Specifically, test compounds diluted to various concentrations in 100% DMSO are first dispensed into 384-well assay plates. Recombinant HDAC9 isoform 4 (purchased from BPS Bioscience) in complete assay buffer (50 mM Tris-HCl, pH 8.0, 137 mM NaCl, 2.7 mM KCl, 1 mM MgCl2, 0.05% BSA & 0.005% Tween 20) were then added to each well (5 uL/well) using Multidrop Combi (Thermo Scientific), followed by 5 uL/well substrate (purchased from BPS Bioscience, 4.5 uM final). After 45 minutes incubation at room temperature, 10 uL 2× developer solution (assay buffer with 40 uM Trypsin and 20 uM Trichostatin A) was added. The plates were then incubated 1 hour at room temperature before reading in fluorescent intensity mode at 450 nm in an Envision (Perkin Elmer) plate reader. Percent Inhibition of HDAC9 activity by compounds in each test wells was calculated by normalizing to fluorescent signal in control wells containing DMSO only.
For dose response experiments, normalized data were fit by ABASE/XC50 using the equation y=a+(b−a)/(1+(10̂×/10̂c)̂d), where a is the minimum % activity, b is the maximum % activity, c is the pIC50, d is the Hill slope.
Turning to `CN(C)CCC(CNC(=O)CCCc1noc(C(F)(F)F)n1)c1coc(-c2ccc(F)cc2)n1` (stereo not shown) [Example 4, N-(4-(Dimethylamino)-2-(2-(4-fluorophenyl)oxazol-4-yl)butyl)-4-(5-(trifluoromethyl)-1,2,4-oxadiazol-3-yl)butanamide], the IC50 is < 1000 nM.

Turning to `CC(C)(CNC(=O)CCCc1noc(C(F)(F)F)n1)c1coc(-c2ccc(F)cc2)n1` [Example 3, N-(2-(2-(4-Fluorophenyl)oxazol-4-yl)-2-methylpropyl)-4-(5-(trifluoromethyl)-1,2,4-oxadiazol-3-yl)butanamide], the IC50 is < 1000 nM. In the case of `CN1CCC(CNC(=O)CCCc2noc(C(F)(F)F)n2)(c2coc(-c3ccc(F)cc3)n2)CC1` [Example 5, N-((4-(2-(4-Fluorophenyl)oxazol-4-yl)-1-methylpiperidin-4-yl)methyl)-4-(5-(trifluoromethyl)-1,2,4-oxadiazol-3-yl)butanamide] it was < 1000 nM; in that of `CN(C)CCC(CNC(=O)CCCc1ccc(C(=O)C(F)(F)F)s1)c1coc(-c2ccc(F)cc2)n1` (stereo not shown) [Example 18, N-(4-(Dimethylamino)-2-(2-(4-fluorophenyl)oxazol-4-yl)butyl)-4-(5-(2,2,2-trifluoroacetyl)thiophen-2-yl)butanamide], < 1000 nM.
